{
  "source": "patent US12502440B2",
  "about": "“Cross-linking compounds and methods of use thereof” (North Carolina State University, priority 2019, dated 2025)",
  "biological_target": "T1, β-glucosidase from Agrobacterium (Agrobacterium sp., UniProt P12614)",
  "T1 construct": "purchased Megazyme",
  "T1 sequence (P12614 1-459)": "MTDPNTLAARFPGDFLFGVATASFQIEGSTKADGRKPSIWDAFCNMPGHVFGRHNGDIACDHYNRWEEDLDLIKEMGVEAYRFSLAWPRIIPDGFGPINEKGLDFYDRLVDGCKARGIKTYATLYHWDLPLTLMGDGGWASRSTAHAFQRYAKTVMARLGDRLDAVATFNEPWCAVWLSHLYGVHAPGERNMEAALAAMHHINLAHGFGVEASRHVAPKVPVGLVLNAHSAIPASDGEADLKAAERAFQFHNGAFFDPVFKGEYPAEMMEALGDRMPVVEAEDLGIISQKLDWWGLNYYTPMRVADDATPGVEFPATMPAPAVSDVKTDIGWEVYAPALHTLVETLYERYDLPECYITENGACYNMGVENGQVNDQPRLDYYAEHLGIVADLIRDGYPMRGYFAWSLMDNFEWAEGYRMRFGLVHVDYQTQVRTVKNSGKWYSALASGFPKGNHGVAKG",
  "assay": "Oligomerization of bis(indoxyl-glucoside) 46 with β-glucosidase from Agrobacterium",
  "assay_type": "biochemical",
  "conditions": "precipitate from 300 μM of 46 suspended in H2O",
  "protocol": "Oligomerization of 46 was carried out by treatment with β-glucosidase from Agrobacterium (200 nM) in 10 mM phosphate buffer (pH 7) at 37° C. for 2-4 h (Scheme 9). Precipitation occurred during the reaction. After centrifugation, the precipitate was separated from the supernatant, washed with H2O, and dried to afford a blue solid.\nThe efficacy of the indigogenic oligomerization was examined under a variety of conditions. As shown in entries 1˜4 in Table 2, the yield of indigoid dye in the supernatant versus precipitate reversed as the concentration of 46 was decreased from 300 to 10 μM, although the total yields were in the range 17-29%. While the reactions in entries 1˜4 were carried out in phosphate buffer containing NaCl (0.05 M), those of entries 5 and 6 (with 300 and 50 μM of 46, respectively) were conducted in NaCl-free phosphate buffer. The use of NaCl-free phosphate buffer facilitated extraction of the indigoid dye in the supernatant for analysis.\nThe time course of the oligomerization was examined under the reaction conditions listed in entry 5 of Table 2, with 300 μM of 46. Noticeable changes include observation of blue clouding and color deepening at 20 min. Centrifugation enabled isolation of the precipitate. […] The absorption spectrum of the precipitate was examined in DMF/DMSO (9:1) and compared with that of the extracted supernatant (in DMF) and 43 (in DMF) (FIG. 10D). […]",
  "data": [
    {"smiles": "O=S(=O)([O-])CCC[N+]1(CCCO)CCN(c2nc(OCCOCCOCCOc3c(Br)cc4[nH]cc(O[C@@H]5O[C@H](CO)[C@@H](O)[C@H](O)[C@H]5O)c4c3Br)nc(OCCOCCOCCOc3c(Br)cc4[nH]cc(O[C@@H]5O[C@H](CO)[C@@H](O)[C@H](O)[C@H]5O)c4c3Br)n2)CC1", "note": "[compound 46]", "values": [
      {"measurement": "particle size of precipitate by DLS (number mean)", "value": "~680", "unit": "nm"}
    ]}
  ]
}
